Laboratory results from patent publication US20130225603A1, “MDM2 INHIBITORS FOR TREATMENT OF OCULAR CONDITIONS” (SERRATA LLC, priority 2010, published 2013).
Entries after “also recorded” stand apart in the source; their conditions may differ.

Experiments:
HRMECs [1] = assay: Cell viability/proliferation, HRMECs in serum; assay type: cell-based, human; settings: racemic Nutlin-3
Description: (§1) Cells were seeded at a concentration of 2×10^5 for HUVECs and 2×10^4 for HUVSMCs in serum free media on 12 well plates after detachment. The cells were allowed to adhere overnight in growth media, and then incubated with X-VIVO media (Cambrex) with or without cytokines (10 ng/ml FGF-2 and 2 μg/ml heparin or 10 ng/ml VEGF-A). For HRMEC experiments, cells were seeded at a concentration of 1×10^5 and allowed to settle overnight in 6-cm plates coated with attachment factor (Cell Signaling, Danvers, Mass.). The next day, fresh 10% FBS and EBM medium was added. […] After incubation, HUVEC were detached with collagenase/EDTA and HUVSMC and HRMEC were detached with trypsin/EDTA. The cells were manually counted with a Hemacytometer (Hausser Scientific, Horsham, Pa.) using Trypan blue exclusion.

HUVECs [2] = assay: Apoptosis of endothelial cells (HUVECs) in serum enriched media; assay type: cell-based, human
p53 [3] = assay: p53 expression in HRMECs; assay type: cell-based, human; settings: racemic Nutlin-3, 10% FBS
Description: (§2) HUVECs and HUVSMCs were incubated at 2×10^6 in X-VIVO media and HRMECs in EBM with 10% FBS under various conditions as reported in the results. Western blot extracts were prepared by lysing cells attached cells in cold RIPA buffer in the presence of protease inhibitors for HUVEC and HUVSMC and passive lysis buffer (Promega, Madison, Wis.) for HRMEC. After sonication and centrifugation to remove cell debris, the protein yield was quantified using the BCA protein assay kit (Pierce Biotechnology Inc., Rockford, Ill.). Normalized cell lysates were then mixed with sample buffer containing 2-mercaptoethanol and SDS and heated for 5 minutes at 95° C. Equal amounts of protein were run on SDS-polyacrylamide gels before being transferred to PVDF membranes. Binding of the primary antibody against p53, p21, and beta actin was detected with enhanced chemiluminescence reagent (Amersham) using HRP-conjugated secondary antibody (1:10,000, Amersham).

HRMECs [4] = assay: Apoptosis of HRMECs in serum (TUNEL); assay type: cell-based, human; settings: HRMECs in serum (10% FBS)
Description: (§3) HUVECs were plated on collagen coated plastic bottom culture dishes (MatTek Corp., Ashland, Mass.) overnight. […] HRMEC were treated with 15 μM of racemic Nutlin for 24 hours in 10% FBS. The TUNEL assay was performed following instructions provided with the kit (Roche Applied Science, Indianapolis, Ind.). Representative images of the HRMEC experiment were provided with a 4× objective using an Olympus AX70 fluorescence microscope following the addition of a nuclear counter stain. For HUVEC experiments, 5 representative fields with a 20× objective using a Zeiss confocal microscope were captured. 2 masked observers performed cell counts. For wholemount retina staining, TUNEL solution was incubated for 48 hours diluted in PBS plus 0.3% Triton-X 100 after lectin staining.

[5] = tested on: retinal vasculature of mouse pups; assay: In vivo retinal vascular development assay (subcutaneous and periocular injection)
Description: A technique described by Strombland et al. was modified to study the effects of Nutlin-3 on in vivo vascular development (see Stromblad S, Fotedar A, Brickner H, et al., J. Biol. Chem. 277:13371-13374 (2002), which is incorporated herein by reference. Briefly, racemic Nutlin was administered by subcutaneous injection in the nape of the neck or in the periocular area of each eye to wild type 129 S1-VIMJ (Jackson Laboratories, Bar Harbor, Me.) mouse pups within 12 hours of birth. The mice received a total of 4 (periocular experiments) or 5 (subcutaneous neck experiments) injections of either racemic Nutlin or 100% DMSO. The first injection of Nutlin was administered at a dose of 40 mg/kg while the rest were given at a dose of 80 mg/kg for experiments involving injections in the nape of the neck. A dose of 80 mg/kg was administered for all injections in the periocular series of experiments. The pups were euthanized on postnatal day 3 and the eyes were enucleated after the fused eyelids incised.
The eyes were then fixed in 4% paraformaldeheyde overnight and washed three times with PBS. After removing the cornea and lens, the hyaloidal (primitive) vasculature was removed and four radial incisions were made in the eyecup to flatten the retina/choroid/sclera complex. The choroid and sclera were removed from the retina and cut at the optic nerve. After the retinal wholemount was blocked with 5% bovine serum albumin, 5% normal donkey serum, and 0.5% TritonX-100 for 3 hours or overnight, the wholemount was incubated with a 1:200 dilution of GS-IB4 lectin overnight and mounted with Vectashield (Vector Laboratories). For double staining wholemount experiments, retinas were incubated with primary antibody overnight at 4° C., underwent 6 one hour washes with PBS-T, followed by incubation with secondary antibody overnight at 4° C., followed by 6 one hour washes with PBS-T prior to being cover-slipped with Vectashield. Using a fluorescent biomicroscope (Carl Zeiss Discovery V12, Thornwood, N.Y.) hyaloidal vessels, vessels connected to the optic nerve, on the surface of the retina, were dissected in a masked manner. A confocal laser (Carl Zeiss LSM 510 meta) was used to obtain images of the retinal vasculature.
We captured images with the same laser power, objective, gain, pinhole, and amplifier offset. The resultant images were masked to the analyst assessing the images. All analyzed images were captured with a 5× objective and then exported to Adobe Photoshop 7.0 (San Jose, Calif.) as high-resolution .tiff images. Using the Magic Wand tool and histogram function, the analyst recorded the number of pixels that best represented the retinal vasculature and omitted the residual hyaloidal (fetal) vasculature that was unable to be removed during dissection. Blood vessels assessed to be residual hyaloid were found at a different focal plane than retinal blood vessels and were usually connected to the optic nerve.

[6] = tested on: retinal vessels of adult mice; assay: In vivo adult retinal vessel assay (intravitreal injection); set-up: species or system mouse; settings: five days after injection
Description: Adult, three month old, 129 and C57/BL6/129S mice were anesthetized with Avertin and also given a drop of topical proparacaine 1% for local anesthesia. Using a stereo microscope, a glass capillary pipette was used to inject 1 μL of either vehicle or racemic Nutlin-3 into the vitreous of cavity of both eyes of each animal. Mice were then euthanized five days after injection. All procedures involving mice were approved and monitored by the Weill Medical College of Cornell University and Hospital for Special Surgery Animal Care and Use Committees. The eyes were then fixed in 4% paraformaldeheyde overnight and washed three times with PBS. After removing the cornea and lens, the hyaloidal (primitive) vasculature was removed and four radial incisions were made in the eyecup to flatten the retina/choroid/sclera complex. The choroid and sclera were removed from the retina and cut at the optic nerve. After the retinal wholemount was blocked with 5% bovine serum albumin, 5% normal donkey serum, and 0.5% TritonX-100 for 3 hours or overnight, the wholemount was incubated with a 1:200 dilution of GS-IB4 lectin overnight and mounted with Vectashield (Vector Laboratories). […]

HUVECs [7] = assay: Flow cytometric analysis for apoptosis (annexin V/propidium iodide), HUVECs; assay type: cell-based, human; settings: HUVEC, 7.5 μM, 24 hours, compared to the control
Source text: (§4) HUVECs were detached with collagenase/EDTA and HUVSMCs were detached with trypsin/EDTA. The cells were then washed twice with PBS, and stained with propidium iodide and annexin V-FITC (Annexin V-FITC apoptosis detection kit I, Beckton Dickinson) according to the manufacturer's instructions.

HUVSMCs [8] = assay: Flow cytometric analysis for apoptosis (annexin V/propidium iodide), HUVSMCs; assay type: cell-based, human; settings: HUVSMC, 7.5 μM, 36 hours, compared to control
Source text: as §4

p53 [9] = settings: HUVEC, 8 hours, compared to Nutlin-3B or control
Description: as §2

HUVSMCs [10] = assay: Cell proliferation assay, HUVSMCs (manual count, Trypan blue exclusion); assay type: cell-based, human
Description: as §1

HUVECs [11] = assay: Cell proliferation assay, HUVECs (manual count, Trypan blue exclusion); assay type: cell-based, human; settings: for HUVEC proliferation: 36 hours
Description: as §1
First, we performed a dose response curve on unstimulated and stimulated serum free HUVECs. […] HUVECs were either unchallenged or challenged with VEGF-A or FGF-2 during the incubation. […] Cell viability was measured at 12, 24, and 36 hours after incubation.

p53 [12] = assay: p53/p21 immunofluorescence and Western blot in HUVSMCs; assay type: cell-based, human; settings: HUVSMC, 7.5 μM, within 8 hours
Description: as §2

HUVECs [13] = assay: Matrigel tube assay for in vitro angiogenesis; assay type: cell-based, human; settings: FGF-2, 24 hours
Description: Matrigel matrix (Becton Dickinson, San Jose, Calif.) was kept on ice for 24 hours. Then, 200 ill of Matrigel were added to each well of a 24 well culture plate. After hardening the Matrigel at 37° C. for 30 minutes, gels were overlaid with 500 μl of X-VIVO medium containing 3×10^4 HUVECs. […] The effect of Nutlin was inspected 24 hours under an inverted light microscope. Nine overlapping images with a 10× objective were taken of each well to perform tubule length quantification. Adobe Photoshop 7.0 (Adobe Systems Inc., San Jose, Calif.) was used to make a montage image of each well. Each montage image was then imported into LSM Image Browser v3.5 (Carl Zeiss Inc., Thornwood, N.Y.) to measure tubule length. Tubule length was then standardized to the overall pixel area examined. A masked observer assessed all measurements.

HUVECs [14] = assay: TUNEL assay for apoptosis, HUVECs; assay type: cell-based, human; settings: serum free HUVEC, 7.5 μM, 24 hours, compared to control
Description: as §3

[15] = tested on: p53 siRNA infected HUVECs; assay: Cell viability of p53 siRNA infected HUVECs; assay type: cell-based, human; settings: 7.5 μM, FGF-2, 48 hours; p53 siRNA vs control siRNA
Description: Passage 3 HUVECs were grown to confluence. pRETRO-SUPER and pRETRO-SUPER-p53 viruses were produced by GP2 cells (Clontech, Mountain View, Calif.). Supernatant was filtered and then added to HUVECs in the presence of […] polybrene followed by 1 μg/ml of Puromycin selection for 7 days.
To determine if the p53 pathway is necessary for the observed Nutlin-3 mediated cellular effects, we infected HUVEC with retrovirus expressing either control short interfering RNA (siRNA) or p53 siRNA. […] (A and B) HUVECs were infected with a lentiviral vector expressing p53 siRNA or control siRNA for 48 hours and then underwent Puromycin selection for 72 hours.

COc1ccc(C2=NC(c3ccc(Cl)cc3)C(c3ccc(Cl)cc3)N2C(=O)N2CCNC(=O)C2)c(OC(C)C)c1 (racemic) [Nutlin-3, (±)-4-[4,5-bis(4-chlorophenyl)-2-(2-isopropoxy-4-methoxy-phenyl)-4,5-dihydro-imidazole-1-carbonyl]-piperazin-2-one]
HRMEC cell viability (HRMECs [1]): sufficient to inhibit cell viability | apoptosis of endothelial cells (HUVECs [2]): do not undergo apoptosis | p53 expression in HRMECs (p53 [3]): upregulation of p53 | apoptosis in HRMECs (HRMECs [4]): induces apoptosis | retinal vasculature compared to sham injected mice (images) ([5]; neonatal mice, periocular injection, FIG. 6E): less retinal vasculature | fewer blood vessels compared to the sham-injected mice ([5]; neonatal mice, periorbital (periocular) injection, 80 mg/kg, postnatal day 3, p<0.01): 43.8% | calibre of retinal vessels affected ([5]; neonatal mice, retinal wholemounts): loss of smaller caliber vessels; also recorded: preferentially targeted capillaries and smaller blood vessels | reduction in the amount of retinal vessels compared to sham injected mice ([5]; neonatal mice, subcutaneous injection in the nape of the neck, 40 then 80 mg/kg, postnatal day 3, p<0.05): 27.4% | retinal vasculature compared to sham injected mice (images) ([5]; neonatal mice, subcutaneous injection in the nape of the neck, FIG. 6B): abrogated | TUNEL positive cells in the retinal vasculature ([5]; neonatal mouse retinal wholemount, GS-IB4 lectin co-staining, rare event): TUNEL positive cells that co-localized to the retinal endothelium | thickness of the neuronal cell layers of the neurosensory retina (hematoxylin and eosin) [6]: did not observe any gross changes in the thickness of the neuronal cell layers | retinal vasculature of adult mice compared to control ([6]; p>0.05): no reduction of the retinal vasculature; also recorded: no difference

COc1ccc(C2=N[C@@H](c3ccc(Cl)cc3)[C@@H](c3ccc(Cl)cc3)N2C(=O)N2CCNC(=O)C2)c(OC(C)C)c1 [Nutlin-3A]
double positive annexin V and propidium iodide cells (late apoptosis) (HUVECs [7]): significantly more double positive annexin V and propidium iodide cells | annexin V and propidium iodide staining (apoptosis) (HUVSMCs [8]): no significant difference | p53 and p21 protein (Western blot) (p53 [9]): increased p53 protein, and its downstream target p21 | HUVSMC proliferation, time course (HUVSMCs [10]; 7.5 μM, serum free HUVSMCs activated with FGF-2 or 5% FBS, at 48 to 72 hours): growth inhibited | HUVSMC early response to increasing concentrations (HUVSMCs [10]; 7.5, 15, 30 μM, serum free, unchallenged HUVSMCs, at 36 hours, p>0.05): did not find an early response | HUVEC growth / cell viability, time course (HUVECs [11]; 7.5 μM, unstimulated, serum free HUVEC, by 36 hours): near complete cell death | HUVEC proliferation (HUVECs [11]; 1, 5 or 10 μM, serum free HUVECs unchallenged or challenged with VEGF-A or FGF-2): inhibit HUVEC proliferation at all tested doses with greater activity at higher concentrations | p53 response (immunofluorescence and Western blot) (p53 [12]): initiated a p53 response; also recorded: increased p53 expression | dose dependence of capillary tube formation inhibition (HUVECs [13]; 5 and 7.5 μM): dose dependent | reduction in capillary tube formation (HUVECs [13]; HUVEC on Matrigel, compared to control): 93% | TUNEL positive cells (apoptosis) (HUVECs [14]): significantly more cells undergoing apoptosis | cell viability of p53 siRNA infected HUVECs [15]: p53 siRNA infected cells had become resistant

COc1ccc(C2=N[C@H](c3ccc(Cl)cc3)[C@H](c3ccc(Cl)cc3)N2C(=O)N2CCNC(=O)C2)c(OC(C)C)c1 [Nutlin-3B]
HUVEC proliferation (HUVECs [11]; 10 μM): little effect on HUVEC proliferation
